Measured values published in US20030176366A1, “Topical application of ascorbic acid compounds for augmenting the synthesis of epidermal ceramides” (SOCIETE L'OREAL S.A., priority 2000, published 2003).

Columns and labels:
[1] = system: reconstructed epidermes; assay: Lipid profile of treated reconstructed epidermes (densitometric analysis); assay type: cell-based; conditions: applied for 6 days at 1.10×10^−4 M; relative to the control and relative to ascorbic acid; not quantified
Description: The test described in Example 1 was repeated using various ascorbic acid derivatives, applied for 6 days at 1.10×10^-4 M on reconstructed […] subjected to 7 days of culture. The quantity of epidermal ceramides produced was, however, not quantified. Instead, a densitometric analysis was carried out using a CAMAG TLC® model Scanner 3 densitometric reader. The lipid profile of the treated […] determined, in which: The lipid content was determined of the sample of reconstructed epidermis either untreated (control), or treated with ascorbic acid (vitamin C) or with one of the ascorbic acid derivatives A to G indicated above.

[2] = system: skin equivalent marketed by EPISKIN; assay: Effect on the synthesis of epidermal lipids in EPISKIN skin equivalent (HPTLC, densitometry); assay type: cell-based; conditions: for percentage increase in Ceramides 4-7 relative to the untreated control / percentage increase in cer. 6-7 relative to the untreated control: treated for five days
Description: Ascorbyl glucoside and ascorbic acid itself were tested on a skin equivalent marketed by EPISKIN (Lyon, France), after culturing the latter for 7 days. The culture and assay media were those contained in the kit marketed by the supplier. Each compound was tested at 5 μg/ml and 0.05 μg/ml (as vitamin C equivalent) in the culture medium. The reconstructed epidermes were treated for five days, the culture medium being replaced every 48 hours. The control consisted of an identical epidermis equivalent which was subjected to topical application of culture medium without the compound to be tested.
At the end of the incubation period, the epidermis equivalent was detached from its collagenic support. The preparation of the lipids of the epidermis equivalent and their analysis by HPTLC or high-performance thin-layer chromatography were carried out according to the technique and with the buffers described by M. Ponec (1991, Adv. Lipid Res., 24:83-117). At the end of the migration, densitometric analysis was carried out using a CAMAG TLC model Scanner 3 densitometric reader.
The results obtained are reported in the Table below as a percentage increase in ceramides 4, 5, 6 and 7 relative to the untreated control.

[3] = 0.05 μg/ml as vitamin C equiv. in culture medium
[4] = 5 μg/ml as vitamin C equiv. in culture medium

Compound: CC1(C)OCC(C2OC(=O)C(O[C@H]3O[C@H](CO)[C@@H](O)[C@H](O)[C@H]3O)=C2O)O1 (stereo partly drawn) [Compound A, 2-O-α-D-glucopyranosyl of (5,6-isopropylidene)ascorbic acid]
- polar ceramide content of reconstructed epidermes / effect on epidermal lipogenesis [1]: significantly increases the polar ceramide content

Compound: O=C(/C=C/c1ccccc1)OC1=C(O)[C@@H]([C@@H](O)CO)OC1=O [Compound B, ascorbyl 2-cinnamate]
- polar ceramide content of reconstructed epidermes / effect on epidermal lipogenesis [1]: significantly increases the polar ceramide content

Compound: COc1cc(/C=C/C(=O)OC2=C(O)[C@@H]([C@@H](O)CO)OC2=O)ccc1O [Compound C, ascorbyl 2-ferulate]
- polar ceramide content of reconstructed epidermes / effect on epidermal lipogenesis [1]: significantly increases the polar ceramide content

Compound: CCCCCCCCCCCCCCCC(=O)OC1=C(O)C(C2COC(C)(C)O2)OC1=O (stereo not shown) [Compound D, (5,6-isopropylidene)ascorbyl 2-hexadecanoate]
- polar ceramide content of reconstructed epidermes / effect on epidermal lipogenesis [1]: significantly increases the polar ceramide content

Compound: COC(=O)COC1=C(OCC(=O)OC)C(C(O)CO)OC1=O (stereo not shown) [Compound E, ascorbyl 2,3-bis(methoxycarbonyl-methoxy) ether, reference compound]
- polar ceramide content of reconstructed epidermes / effect on epidermal lipogenesis [1]: no significant effect on the epidermal lipogenesis

Compound: O=C1O[C@H]([C@@H](O)CO)C(O)=C1OS(=O)(=O)[O-].O=C1O[C@H]([C@@H](O)CO)C(O)=C1OS(=O)(=O)[O-].[Ba+2] [Compound F, barium 2-ascorbyl sulfate, reference compound]
- polar ceramide content of reconstructed epidermes / effect on epidermal lipogenesis [1]: no significant effect on the epidermal lipogenesis

Compound: CC1(C)OCC(C2OC(=O)C(OC(=O)c3ccccc3)=C2O)O1 (stereo not shown) [Compound G, (5,6-isopropylidene)ascorbyl 2-benzoate]
- polar ceramide content of reconstructed epidermes / effect on epidermal lipogenesis [1]: significantly increases the polar ceramide content

Compound: O=C1O[C@H]([C@@H](O)CO)C(O)=C1O [ascorbic acid]
- percentage increase in Ceramides 4-7 relative to the untreated control [2, 3]: +7%
- percentage increase in cer. 6-7 relative to the untreated control [2, 3]: +15%
- percentage increase in Ceramides 4-7 relative to the untreated control [2, 4]: +21%
- percentage increase in cer. 6-7 relative to the untreated control [2, 4]: −17%

Compound: O=C1O[C@H]([C@@H](O)CO)C(O)=C1O[C@H]1O[C@H](CO)[C@@H](O)[C@H](O)[C@H]1O [ascorbyl glucoside, 2-O-α-D-glucopyranosyl of L-ascorbic acid]
- percentage increase in Ceramides 4-7 relative to the untreated control [2, 3]: +11%
- percentage increase in cer. 6-7 relative to the untreated control [2, 3]: +65%
- percentage increase in Ceramides 4-7 relative to the untreated control [2, 4]: +40%
- percentage increase in cer. 6-7 relative to the untreated control [2, 4]: +59%
- increase in the synthesis of the epidermal lipids (in particular of the most polar ceramides) compared with ascorbic acid ([2]; tested at the same concentration as ascorbic acid): much higher for ascorbyl glucoside than for ascorbic acid
